{"source": "patent US4139531A", "about": "“1-Nitro-9-alkylaminoalkylaminoacridines and salts thereof” (Politechnika Gdanska, priority 1976, dated 1979)", "key": {"[1]": {"assay": "Acute toxicity, LD50, mouse", "conditions": "in vivo, observations over 72 hours", "method": "(§1) The biological activity analysis was supported by detailed pharmacologic examinations. After observations made over 72 hours, it was determined that the LD50 -value for the preparation C-846 for mice and rats (in mg/kg), was as follows: […]"}, "[2]": {"assay": "Acute toxicity, LD50, rat", "conditions": "in vivo, observations over 72 hours", "method": "as §1"}, "[3]": {"assay": "Maximum tolerance dosage (MTD), mouse", "conditions": "in vivo", "method": "(§2) Moreover, the maximum tolerance dosage (MTD) for mice and rats was determined (in mg/kg), as follows: […]"}, "[4]": {"assay": "Maximum tolerance dosage (MTD), rat", "conditions": "in vivo", "method": "as §2"}, "[5]": {"test_system": "rabbits and cats", "assay": "Arterial blood pressure, respiratory function, electrocardiogram and lethal dosage in rabbits and cats", "type": "in vivo"}, "[6]": {"test_system": "isolated small intestine of guinea-pig", "assay": "Spasmolytic activity, isolated small intestine of guinea-pig", "conditions": "concentration 5 × 10^-6"}, "[7]": {"test_system": "isolated small intestine of rat", "assay": "Spasmolytic activity, isolated small intestine of rat", "conditions": "concentration of 10^-5"}, "[8]": {"test_system": "small intestine; muscular coat of the urinary bladder", "assay": "Spasmolytic activity in vivo, small intestine and urinary bladder of rabbit and cat", "conditions": "intravenous, dosages of more than 5 mg/kg"}, "[9]": {"test_system": "central nervous system", "type": "in vivo, mice"}, "[10]": {"test_system": "rats and rabbits", "assay": "Prolonged (three-month) toxicity investigations on rats and rabbits", "type": "in vivo", "method": "Prolonged investigations were carried out on rats and rabbits during the whole three-month-exposition period of time, introducing dosages corresponding to 1/150, 1/100 and 1/50 of the LD50 -value. This last dosage was a dosage which was maximally tolerated during this period of time."}, "[11]": {"test_system": "rats", "assay": "Reproduction and offspring development in rats", "type": "in vivo"}, "[12]": {"assay": "Local irritating action", "type": "in vivo"}, "[13]": {"test_system": "Crocker mice sarcoma (Sa-180)", "assay": "Growth inhibition of the Crocker mice sarcoma (Sa-180)", "type": "in vivo", "conditions": "dosage of 0.2 mg/kg, intraperitoneally, dihydrochloride", "method": "The growth inhibition of the Crocker mice sarcoma (Sa-180).\nFor this investigation, mice of about three months in age and a weight of about 25 g were used. These animals were inoculated with a section of the neoplasm (Sa-180) and were divided into groups: the first of control - 10 mice; and two to four groups of \"under treatment\" ones (seven mice each).\nThe compounds investigated were administered intraperitoneally in appropriate doses, after previous determination of the maximum tolerance dosage.\nA criterion of the evaluation the anti-neoplastic activity of the compounds tested was accepted wherein the percent difference between mean weights of the nodules (tumours) of control mice and of those which received the preparations, taking into account the toxic effects."}, "[14]": {"conditions": "large dosages, more than 8 mg/kg"}, "[15]": {"conditions": "rabbits and cats, intraperitoneal, dosages up to 10 mg/kg"}}, "note": "Several values for one entry are separate records, joined by “and”; a condition that tells them apart may be missing. Equal entries are not always repeated."}
{"compound": "CC(C)NCCCNc1c2ccccc2nc2cccc([N+](=O)[O-])c12.Cl.Cl", "note": "[Example C-846, 1-nitro-9-isopropylaminopropylaminoacridine dihydrochloride]", "values": [{"measurement": "LD50 at 72 h", "setting": "[1]; iv", "value": "2.2 ± 0.1", "unit": "mg/kg"}, {"measurement": "LD50 at 72 h", "setting": "[1]; po", "value": "126 ± 24.7", "unit": "mg/kg"}, {"measurement": "LD50 at 72 h", "setting": "[2]; iv", "value": "0.95 ± 0.1", "unit": "mg/kg"}, {"measurement": "LD50 at 72 h", "setting": "[2]; po", "value": "127 ± 17.8", "unit": "mg/kg"}, {"measurement": "MTD", "setting": "[3]; iv", "value": 1.85, "unit": "mg/kg"}, {"measurement": "MTD", "setting": "[3]; po", "value": 27.2, "unit": "mg/kg"}, {"measurement": "MTD", "setting": "[4]; iv", "value": 0.63, "unit": "mg/kg"}, {"measurement": "MTD", "setting": "[4]; po", "value": 75, "unit": "mg/kg"}, {"measurement": "effect on blood pressure", "setting": "[5]; intravenous injection, 2 mg/kg", "value": "insignificant and transient hypotony"}, {"measurement": "effect on respiration", "setting": "[5]; intravenous injection, 2 mg/kg", "value": "instinctive acceleration of deepened respiration"}, {"measurement": "PQ segment", "setting": "[5]; [14]", "value": "prolongation of the PQ segment"}, {"measurement": "QRS-Complex", "setting": "[5]; [14]", "value": "dilation of the QRS-Complex"}, {"measurement": "changes in electrocardiograms", "setting": "[5]; [14]", "value": "transient changes in electrocardiograms were noted, due to the disturbances of the atrio-ventricular and intra-ventricular conductivity"}, {"measurement": "effects of the lethal dosages", "setting": "[5]; rabbits and cats, about 15 mg/kg, i.v.", "value": "permanent hypotony and respiration disturbances or even apnoea"}, {"measurement": "lethal dosages", "setting": "[5]; rabbits and cats, i.v.", "value": "~15", "unit": "mg/kg"}, {"measurement": "effect on the arterial blood pressure", "setting": "[5]; [15]", "value": "did not have any effect"}, {"measurement": "effect on the respiratory function", "setting": "[5]; [15]", "value": "did not have any effect"}, {"measurement": "muscular tension and spontaneous intestine peristalsis (spasmolytic activity)", "setting": "[6]", "value": "a decrease was noted in the muscular tension and an atrophy of spontaneous intestine peristalsis"}, {"measurement": "muscular tension and spontaneous intestine peristalsis (spasmolytic activity)", "setting": "[7]", "value": "a decrease was noted in the muscular tension and an atrophy of spontaneous intestine peristalsis"}, {"measurement": "spasmolytic activity regarding the small intestine and the muscular coat of the urinary bladder", "setting": "[8]", "value": "such an activity"}, {"measurement": "influence on spontaneous and forced motor activity", "setting": "[9]; mice, dosages up to 1/10 LD50", "value": "did not influence in such dosages in essential manner"}, {"measurement": "influence on the action of hypnotic agents (luminal, chloral hydrate) and of convulsant agents (Cardiazol, strychnine)", "setting": "[9]; mice, dosages up to 1/10 LD50", "value": "did not influence"}, {"measurement": "activity on the central nervous system", "setting": "[9]; mouse, in vivo", "value": "did not demonstrate any evident and oriented activity"}, {"measurement": "blood coagulation time", "setting": "[10]; in the third month", "value": "a certain prolongation was noted"}, {"measurement": "histology, germinal epithelium / testicles", "setting": "[10]; in vivo", "value": "some degenerative lesions appeared in a range of the germinal epithelium, in the range of testicles"}, {"measurement": "histology, intestinal epithelium and glandular texture", "setting": "[10]; in vivo", "value": "a desquamation (desfoliation) of the intestinal epithelium and an atrophy of the glandular texture"}, {"measurement": "histology, lymphatic system", "setting": "[10]; in vivo", "value": "a decrease in the amount of the reproductive centers was noted, as well as a decrease in the amount of the small lymphocytes"}, {"measurement": "histology, other internal organs", "setting": "[10]; in vivo", "value": "did not show any other microscopic changes"}, {"measurement": "histology, spermatogenesis", "setting": "[10]; in vivo", "value": "some disturbances in spermatogenesis, a decrease in the amount of sperm cells"}, {"measurement": "activity of the acid phosphatase", "setting": "[10]; only after the highest dosages, prolonged time of exposition", "value": "increase in activity of the acid phosphatase was observed"}, {"measurement": "hepatic functional tests (AlAt, AspAt, acid and alkaline phosphatases, thymol turbidity test)", "setting": "[10]; rats and rabbits, three months", "value": "did not show an occurrence of any pathologic lesions"}, {"measurement": "influence on the peripheral blood or medular hematopoietic system", "setting": "[10]; rats and rabbits, three months", "value": "could not be proved, that the preparation had influence"}, {"measurement": "renal tests (creatinine clearance, glomerular filterability)", "setting": "[10]; rats and rabbits, three months", "value": "did not show any deviation from the norm"}, {"measurement": "dosage maximally tolerated during three months", "setting": "[10]; rats and rabbits, three-month exposition", "value": "1/50"}, {"measurement": "amount of infant animals in the brood", "setting": "[11]", "value": "decreased"}, {"measurement": "capacity to conceive or induce conception / ability of females to become pregnant", "setting": "[11]", "value": "did not inhibit"}, {"measurement": "macroscopic malformations", "setting": "[11]", "value": "no macroscopic malformations were observed"}, {"measurement": "ontogenetic development of infant animals", "setting": "[11]", "value": "retarded"}, {"measurement": "local irritating action", "setting": "[12]; concentrations of from 0.05 to 1.0%", "value": "exerted a local irritating action"}, {"measurement": "local changes caused by the intravenous injection", "setting": "[12]; phosphate buffer solution at pH 7 as solvent", "value": "could be eliminated"}]}
{"compound": "CCNCCCNc1c2ccccc2nc2cccc([N+](=O)[O-])c12.Cl.Cl", "note": "[Example C-845, 1-nitro-9-ethylaminopropylaminoacridine dihydrochloride]", "values": [{"measurement": "inhibition values of Crocker's sarcoma (Sa-180)", "setting": "[13]", "value": "48% and 49% and 57%"}]}
